In ChEMBL document CHEMBL1201862, “PubChem BioAssay data set” (2004):
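Compound exposure: 48 hours, 5 concentrations, 96-well plates. GI50: concentration for 50% inhibition of growth.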 Activity calls are given as the source filed them. Cut-off read from the data, not from the text of the source: active = GI50 up to about 1.1 µM and inactive = higher.

Columns and labels:
Experiment in all cases: NCI tumour cell line growth inhibition, 48 h
[1] = test system: MCF7
[2] = test system: NCI/ADR-RES
[3] = test system: UO-31
[4] = test system: MDA-MB-231
[5] = test system: HL-60
[6] = test system: SF-295
[7] = test system: MDA-N
[8] = test system: A549
[9] = test system: NCI-H460
[10] = test system: HT-29
[11] = test system: SNB-19
[12] = test system: OVCAR-3
[13] = test system: HCC 2998
[14] = test system: 786-0
[15] = test system: RPMI-8226
[16] = test system: SK-MEL-28
[17] = test system: OVCAR-4
[18] = test system: NCI-H522
[19] = test system: K562
[20] = test system: OVCAR-5

Row | Structure (SMILES) | GI50 [1] | GI50 [2] | GI50 [3] | GI50 [4] | GI50 [5] | GI50 [6] | GI50 [7] | GI50 [8] | GI50 [9] | GI50 [10] | GI50 [11] | GI50 [12] | GI50 [13] | GI50 [14] | GI50 [15] | GI50 [16] | GI50 [17] | GI50 [18] | GI50 [19] | GI50 [20]
1 | S=C(Nc1ccccn1)Nc1ccccc1Cl | 5.98 µM (inactive) | > 67.5 µM (inactive) | > 100 µM (inactive) | 61.9 µM (inactive) | > 80.7 µM (inactive) | > 64.9 µM (inactive) | > 100 µM (inactive) | 50.8 µM (inactive) | 71 µM (inactive) | > 61.1 µM (inactive) | 27 µM (inactive) | > 67.1 µM (inactive) | > 100 µM (inactive) | > 67.5 µM (inactive) | > 100 µM (inactive) | > 100 µM (inactive) | > 61.7 µM (inactive) | 14.7 µM (inactive) | > 100 µM (inactive) | > 50.2 µM (inactive)
2 | N=C1N=C(N)c2cc3c(cc21)SCCSCCCSCCS3 | 27 µM (inactive) | 58.1 µM (inactive) | 49.9 µM (inactive) | 16 µM (inactive) | 3.77 µM (inactive) | 13.9 µM (inactive) | 15 µM (inactive) | 18.7 µM (inactive) | 13.3 µM (inactive) | 11.2 µM (inactive) | 15.5 µM (inactive) | 11.8 µM (inactive) | 9.62 µM (inactive) | 14.2 µM (inactive) | > 10 µM (inactive) | 14.6 µM (inactive) | 19.8 µM (inactive) | 2.8 µM (inactive) | 4.71 µM (inactive) | 18.4 µM (inactive)
3 | O=C1c2ccccc2C(=O)c2c1oc(=O)c1ccccc21 | 2.21 µM (inactive) | 1.94 µM (inactive) | 5.22 µM (inactive) | 3.74 µM (inactive) | 0.664 µM (active) | 3.83 µM (inactive) | 2.2 µM (inactive) | 7.46 µM (inactive) | 4.38 µM (inactive) | 1.4 µM (inactive) | 8.75 µM (inactive) | 0.698 µM (active) | 3.21 µM (inactive) | 5.35 µM (inactive) | 3.63 µM (inactive) | 6.5 µM (inactive) | 1.08 µM (active) | 4.07 µM (inactive) | 4 µM (inactive) | 6.03 µM (inactive)
4 | Ic1ccc2c(c1)N(c1ccccc1)c1cc([N-]c3ccc4nc5ccc(I)cc5[n+](-c5ccccc5)c4c3)ccc1N2 | 26.4 µM (inactive) | > 100 µM (inactive) | > 100 µM (inactive) | 23.7 µM (inactive) | 17.9 µM (inactive) | > 100 µM (inactive) | 37.6 µM (inactive) | > 100 µM (inactive) | 42 µM (inactive) | 14.8 µM (inactive) | > 100 µM (inactive) | 2.92 µM (inactive) | 67.1 µM (inactive) | > 100 µM (inactive) | 32.1 µM (inactive) | > 100 µM (inactive) | > 100 µM (inactive) | 22.8 µM (inactive) | 35 µM (inactive) | > 100 µM (inactive)
5 | O=C1C(Cl)=C(N2CCN(c3ncccn3)CC2)C(=O)c2c(O)ccc(O)c21 | 1.51 µM (inactive) | 3.01 µM (inactive) | 2.07 µM (inactive) | 2.15 µM (inactive) | 0.0515 µM (active) | 12.4 µM (inactive) | 1.78 µM (inactive) | 7.16 µM (inactive) | 15.3 µM (inactive) | 2.98 µM (inactive) | 6.55 µM (inactive) | 1.72 µM (inactive) | 10.8 µM (inactive) | 1.6 µM (inactive) | 2.49 µM (inactive) | 2.23 µM (inactive) | 1.98 µM (inactive) | 2.2 µM (inactive) | 1.45 µM (inactive) | 7.91 µM (inactive)
